We go through 28 molecules from patent US8877741B2, “Pyrrolidine derivatives, pharmaceutical compositions and uses thereof” (Boehringer Ingelheim International GmbH, priority 2013, dated 2014).

Molecules are shown by their SMILES.

Sequence of human ACC2 (O00763 129-2458): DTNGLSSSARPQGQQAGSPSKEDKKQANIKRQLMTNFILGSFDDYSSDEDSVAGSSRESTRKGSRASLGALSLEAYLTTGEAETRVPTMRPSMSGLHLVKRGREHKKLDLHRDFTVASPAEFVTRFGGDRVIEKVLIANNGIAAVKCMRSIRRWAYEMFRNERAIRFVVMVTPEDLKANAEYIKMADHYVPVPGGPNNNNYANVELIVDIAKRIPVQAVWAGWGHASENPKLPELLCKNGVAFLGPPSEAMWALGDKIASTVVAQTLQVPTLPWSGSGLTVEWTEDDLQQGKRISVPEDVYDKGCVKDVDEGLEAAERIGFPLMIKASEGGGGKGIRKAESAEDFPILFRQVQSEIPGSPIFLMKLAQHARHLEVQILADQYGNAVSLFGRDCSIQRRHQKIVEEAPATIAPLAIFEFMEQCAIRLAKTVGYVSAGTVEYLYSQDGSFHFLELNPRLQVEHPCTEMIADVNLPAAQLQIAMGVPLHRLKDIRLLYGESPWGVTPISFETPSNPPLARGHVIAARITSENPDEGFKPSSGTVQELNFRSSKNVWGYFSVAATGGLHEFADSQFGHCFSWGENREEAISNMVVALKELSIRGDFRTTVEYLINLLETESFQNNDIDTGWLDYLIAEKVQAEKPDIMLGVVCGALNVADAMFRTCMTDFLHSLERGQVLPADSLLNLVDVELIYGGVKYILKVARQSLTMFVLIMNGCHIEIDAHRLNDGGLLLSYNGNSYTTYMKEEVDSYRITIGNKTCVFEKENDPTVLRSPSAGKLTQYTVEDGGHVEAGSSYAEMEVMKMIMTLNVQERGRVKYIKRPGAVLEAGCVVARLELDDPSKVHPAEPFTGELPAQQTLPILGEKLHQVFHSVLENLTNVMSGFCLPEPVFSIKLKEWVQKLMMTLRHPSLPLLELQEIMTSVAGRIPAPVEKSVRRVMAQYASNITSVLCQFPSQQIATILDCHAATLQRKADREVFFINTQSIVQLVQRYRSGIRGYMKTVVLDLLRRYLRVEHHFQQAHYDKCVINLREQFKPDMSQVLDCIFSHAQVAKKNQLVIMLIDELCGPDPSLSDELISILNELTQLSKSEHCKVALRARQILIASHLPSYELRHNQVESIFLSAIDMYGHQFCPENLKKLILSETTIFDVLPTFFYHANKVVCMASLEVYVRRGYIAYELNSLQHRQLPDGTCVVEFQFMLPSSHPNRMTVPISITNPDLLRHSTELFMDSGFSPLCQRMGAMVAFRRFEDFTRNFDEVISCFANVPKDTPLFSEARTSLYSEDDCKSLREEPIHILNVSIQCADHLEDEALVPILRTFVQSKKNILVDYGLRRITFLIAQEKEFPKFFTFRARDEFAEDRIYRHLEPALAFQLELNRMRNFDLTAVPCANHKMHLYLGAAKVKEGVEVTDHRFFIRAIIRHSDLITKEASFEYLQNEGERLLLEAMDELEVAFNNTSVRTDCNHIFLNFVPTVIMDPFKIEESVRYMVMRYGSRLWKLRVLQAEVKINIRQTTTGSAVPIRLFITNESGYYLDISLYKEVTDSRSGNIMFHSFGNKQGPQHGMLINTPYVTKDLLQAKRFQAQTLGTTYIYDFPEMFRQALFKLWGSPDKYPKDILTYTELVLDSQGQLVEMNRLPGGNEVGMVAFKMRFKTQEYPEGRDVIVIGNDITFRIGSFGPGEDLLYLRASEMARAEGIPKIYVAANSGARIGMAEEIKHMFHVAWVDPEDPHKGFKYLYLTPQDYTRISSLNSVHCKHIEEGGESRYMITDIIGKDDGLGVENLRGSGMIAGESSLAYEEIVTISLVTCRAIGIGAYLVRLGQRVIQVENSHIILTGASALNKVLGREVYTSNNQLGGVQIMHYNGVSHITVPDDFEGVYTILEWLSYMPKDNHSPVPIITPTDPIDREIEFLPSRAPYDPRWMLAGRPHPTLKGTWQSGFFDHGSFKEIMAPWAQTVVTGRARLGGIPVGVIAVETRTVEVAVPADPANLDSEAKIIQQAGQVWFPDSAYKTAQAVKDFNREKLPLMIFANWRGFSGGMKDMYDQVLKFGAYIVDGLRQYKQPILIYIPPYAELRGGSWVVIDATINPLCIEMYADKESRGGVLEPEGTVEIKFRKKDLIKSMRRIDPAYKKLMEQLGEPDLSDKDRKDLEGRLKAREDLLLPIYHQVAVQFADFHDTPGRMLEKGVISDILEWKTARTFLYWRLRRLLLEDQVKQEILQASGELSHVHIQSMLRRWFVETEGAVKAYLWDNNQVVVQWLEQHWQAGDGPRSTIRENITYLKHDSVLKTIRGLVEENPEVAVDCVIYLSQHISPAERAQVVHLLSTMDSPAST

In this assay the target is human ACC2 (Homo sapiens (Human), UniProt O00763). In words: ACC2 assay, spectrophotometric 384 well assay (NADH-linked kinetic method). Type of assay: biochemical. To be noted: human ACC2 construct lacking the 128 N-terminal amino acids; coupled lactate dehydrogenase/pyruvate kinase reaction, 340 nm, 25° C. In short, it runs like this:
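ADP formation was monitored as NADH consumption at 340 nm for 15 min at 25 °C, using baculovirus-expressed human ACC2 missing its first 128 amino acids, with 500 μM ATP and 2000 μM each of acetyl-CoA and NADH (final). IC50 was fitted by non-linear regression on low-control-subtracted slopes.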
`CC(=O)N[C@@H](C)c1ccc(O[C@@H]2CCN(c3cccc(N(C)CC(C)C)n3)C2)cc1` [Example 10.36] had a concentration for half-maximal inhibition (IC50) of 399 nM.

`COC1CCCN(c2cccc(N3CC[C@@H](Oc4ccc([C@H](C)NC(C)=O)cc4)C3)n2)C1` (stereo partly shown) [Example 10.37] returned a concentration for half-maximal inhibition (IC50) of 325 nM. In turn, `CC(=O)N[C@@H](C)c1ccc(O[C@@H]2CCN(c3cccc(N4CCOC(C)(C)C4)n3)C2)cc1` [Example 10.38] displayed an IC50 of 369 nM. Take `CC(=O)N[C@@H](C)c1ccc(O[C@@H]2CCN(c3cccc(N(C)C4CCOCC4)n3)C2)cc1` [Example 10.39]: the IC50 came to 360 nM. As for `CC(=O)N[C@@H](C)c1ccc(O[C@@H]2CCN(c3cccc(N4CCCOCC4)n3)C2)cc1` [Example 10.40], the figure is 528 nM; as for `COC[C@H]1CCCN1c1cccc(N2CC[C@@H](Oc3ccc([C@H](C)NC(C)=O)cc3)C2)n1` [Example 10.41], 1020 nM. The same measure for `COC1CCN(c2cccc(N3CC[C@@H](Oc4ccc([C@H](C)NC(C)=O)cc4)C3)n2)CC1` [Example 10.42]: 759 nM; for `CCN(CCO)c1cccc(N2CC[C@@H](Oc3ccc([C@H](C)NC(C)=O)cc3)C2)n1` [Example 10.43]: 770 nM; for `CC(=O)N[C@@H](C)c1ccc(O[C@@H]2CCN(c3cccc(N4CC=CC4)n3)C2)cc1` [Example 10.44]: 665 nM. The same measure for `CC(=O)N[C@@H](C)c1ccc(O[C@@H]2CCN(c3cccc(N(C)C[C@H]4CCCO4)n3)C2)cc1` [Example 10.45]: 165 nM; for `COC[C@@H]1CCCN1c1cccc(N2CC[C@@H](Oc3ccc([C@H](C)NC(C)=O)cc3)C2)n1` [Example 10.46]: 175 nM. Take `CC(=O)N[C@@H](C)c1ccc(O[C@@H]2CCN(c3cccc(N4CCC(C)(O)C4)n3)C2)cc1` (stereo partly shown) [Example 10.47]: the midpoint of inhibition, the IC50, lay at 455 nM. As for `CC(=O)N[C@@H](C)c1ccc(O[C@@H]2CCN(c3cccc(N4CCC(C)(C)C4)n3)C2)cc1` [Example 10.48], the figure is 256 nM.

As to `CC(=O)N[C@@H](C)c1ccc(O[C@@H]2CCN(c3cccc(N4CCOCC4C)n3)C2)cc1` (stereo partly shown) [Example 10.49], the IC50 turned out to be 785 nM. The same measure for `CC(=O)N[C@@H](C)c1ccc(O[C@@H]2CCN(c3ccnc(NCC4(O)CCC4)c3F)C2)cc1` [Example 10.50]: 53 nM. As for `CC(=O)N[C@@H](C)c1ccc(O[C@@H]2CCN(c3ccnc(NCC(C)(C)O)c3Cl)C2)cc1` [Example 10.51], the figure is 65 nM; as for `CC(=O)N[C@@H](C)c1ccc(O[C@@H]2CCN(c3ccnc(N4CCC(C)(O)C4)c3F)C2)cc1` (stereo partly shown) [Example 10.52], 80 nM.

Molecule `CC(=O)N[C@@H](C)c1ccc(O[C@@H]2CCN(c3ccnc(NCC(C)(C)O)c3F)C2)cc1` [Example 10.53] yielded an IC50 of 215 nM.

On to `CC(=O)N[C@@H](C)c1ccc(O[C@@H]2CCN(c3ccnc(N4CCC(C)(O)C4)c3Cl)C2)cc1` (stereo partly shown) [Example 10.54], for which the IC50 was found to be 114 nM. As for `CC(=O)N[C@@H](C)c1ccc(O[C@@H]2CCN(c3ccnc(NCC4(O)CCC4)c3Cl)C2)cc1` [Example 10.55], the figure is 57 nM; as for `CC(=O)N[C@@H](C)c1ccc(O[C@@H]2CCN(c3ccc(OCC(F)F)cn3)C2)cc1` [Example 11.1, N—((S)-1-(4-((R)-1-(5-(2,2-Difluoroethoxy)pyridin-2-yl)pyrrolidin-3-yloxy)phenyl)ethyl)acetamide], 510 nM; as for `CC(=O)N[C@@H](C)c1ccc(O[C@@H]2CCN(c3ccc(OCC(F)(F)C(F)F)cn3)C2)cc1` [Example 11.2], 870 nM. `CC(=O)N[C@@H](C)c1ccc(O[C@@H]2CCN(c3ccc(OCCCF)cn3)C2)cc1` [Example 11.3] registered an IC50 of 131 nM. For the molecule `C[C@H](NC=O)c1ccc(O[C@@H]2CCN(c3cccc(C(F)(F)F)n3)C2)cc1` [Example 12, N—((S)-1-(4-((R)-1-(6-(Trifluoromethyl)pyridin-2-yl)pyrrolidin-3-yloxy)phenyl)ethyl) formamide], the IC50 is 888 nM.

For the molecule `Cc1nc(N)sc1C(=O)N[C@@H](C)c1ccc(O[C@@H]2CCN(c3ccc(OCC4CC4(F)F)cn3)C2)cc1` (stereo partly drawn) [Example 13, 2-Amino-N—((1S)-1-(4-((3R)-1-(5-((2,2-difluorocyclopropyl)methoxy)pyridin-2-yl)pyrrolidin-3-yloxy)phenyl)ethyl)-4-methylthiazole-5-carboxamide], the IC50 was determined as 240 nM. This IC50 is about 3.7-fold lower than that of the molecule before.

The molecule `COc1c(N2CC[C@@H](Oc3ccc([C@H](C)NC(C)=O)cc3)C2)ccnc1OCC(F)F` [Example 14.1, N—((S)-1-(4-((R)-1-(2-(2,2-Difluoroethoxy)-3-methoxypyridin-4-yl)pyrrolidin-3-yloxy)phenyl)ethyl)acetamide] showed a half-inhibitory concentration (IC50) of 58 nM. The same measure for `COc1c(N2CC[C@@H](Oc3ccc([C@H](C)NC(C)=O)cc3)C2)ccnc1OCC1CC1(F)F` (stereo partly shown) [Example 14.2]: 45 nM.

Consider `CC(=O)N[C@@H](C)c1ccc(O[C@@H]2CCN(c3ccnc(C4CC4)c3F)C2)cc1` [Example 15, N—((S)-1-(4-((R)-1-(2-cyclopropyl-fluoropyridin-4-yl)pyrrolidin-3-yloxy)phenyl)-ethyl)-acetamide], for which the IC50 came out at 245 nM.
